# Reference: patent US9387231B2, “Compositions comprising a Brd4 antagonist and methods for the treatment of HIV” (THE CHILDREN'S HOSPITAL OF PHILADELPHIA, priority 2011, dated 2016)
# “Also recorded” adds a separate entry of the source.
# Tests used:
# Format in all cases: cell-based
# HIV-1 NL43 = experiment: Viral integration in primary resting CD4 T-cells by Alu-PCR; conditions: for provirus/cell: NL43, 1 μM, T48 h, listed as JQ(+)
# Procedure: To determine if JQ1(+) affects viral integration in primary resting CD4 T-cells, the cells were purified and infected with HIV-1 NL43 or mock control. The infected cells were then cultured in the presence of 1 μM of JQ1(+) or JQ1(−) for 48 hours. Cell pellets were collected at 0 hours and 48 hours after infection. DNA was isolated and the viral integration in resting CD4 T-cells was measured by Alu-PCR.
# [1] = tested on: Cdk9 binding to the HIV LTR; experiment: Chromatin immunoprecipitation (ChIP) of HIV LTR DNA, Cdk9; conditions: CEMss LTR-GFP cells infected with HIV NL4-3, days 3 to 5, compared to JQ1(−), p<0.001
# Procedure: (§1) FIGS. 7A and 7B show the fold increase in the binding of IgG, RNA polymerase II, or Cdk9 to the HIV LTR in the presence of JQ1(+) or JQ1(−) for early (FIG. 7A) and late (FIG. 7B) HIV-1 transcript. ***p<0.001.
# (§2) To further investigate the mechanism of JQ1(+) reactivation of HIV transcription in latently infected T-cells, the binding of RNA polymerase II (PoI II) and p-TEFb (Cdk9/Cyclin T) to the promoter region of HIV LTR was measured using chromatin immunoprecipitation (ChIP). A CEMss reporter cell line stably transfected with GFP under the control of the HIV LTR promoter was used. CEMss LTR-GFP cells were infected with HIV NL4-3 in the presence of JQ1(+) or JQ1(−). At days 3 to 5 of infection, cells were collected and sheared, and formaldehyde cross-linked chromatin extracts were immunoprecipitated with antibodies specific for IgG, RNA polymerase II, or Cdk9. The abundance of HIV LTR DNA in immunoprecipitates was assessed by qPCR with two sets of primers specific for early or late regions of the HIV LTR.
# Primary CD4 T-cells = experiment: Cell death of HIV-infected primary CD4 T-cells (FSC/SSC); conditions: primary activated CD4 T-cells infected with NL43 or SG3, 0.1 μM, days 3-13
# Procedure: Primary CD4 T-cells were activated with anti-CD3/28, then infected with HIV, NL43 or SG3, and cultured in the presence of JQ1(+) (1 μM or 0.1 μM) or media. At days 3, 6, 10 and 13 after infection, cell death was measured by percent of FSC/SSC (forward scatter/side scatter) as indicated in individual plots (FIGS. 8A and 8C). The expression of p24 in live cells was examined by flow cytometry and is shown as the percentage of p24+ cells (FIGS. 8B and 8D).
# Of note, mean fluorescence of p24 was unchanged in the presence of the active inhibitor, indicating there was not a non-specific toxic drug effect and supporting the observation that BET antagonism inhibits HIV production at late time points of infection in primary activated CD4 T-cells.
# [2] = tested on: RNA polymerase II binding to the HIV LTR; experiment: Chromatin immunoprecipitation (ChIP) of HIV LTR DNA, RNA polymerase II; conditions: CEMss LTR-GFP cells infected with HIV NL4-3, days 3 to 5, compared to JQ1(−), p<0.001
# Procedure: as §1, §2
# HIV LTR = experiment: Reactivation of the HIV LTR in latently infected J-Lat clones (GFP by flow cytometry)
# Procedure: GFP expression was measured by flow cytometry. FIGS. 3B and 3C shown the percentage of cells positive for GFP (FIG. 3B) and the mean MFI of GFP (FIG. 3C) in latently infected cell lines, J-Lat clones 82, A72, A7, A2, and A1, at 16 hours after TNFα or PHA was added in the cultures in the presence of JQ1(+) or JQ1(−). […] GFP expression in cells was measured by flow cytometry and is indicated as percent of GFP+ cells in gated live cell populations. An average of 5 experiments is shown. * p<0.05, ** p<0.01, *** p<0.001. […] Average of 3 experiments is shown. * p<0.05. For FIG. 3F, J-Lat A2 and A72 cells were reactivated with TNFα (20 ng/ml) or HIV Tat protein (50 μg/ml) in the presence of JQ1(+) or JQ1(−) for 16-18 hours, and GFP expression in cells was measured by flow cytometry. One representative experiment is shown. In each dot plot, non-underlined numbers indicate percentage of GFP+ cells and underlined numbers indicate mean fluorescence of GFP (MFI).
# Next, the effect of JQ1 on activation of the HIV LTR was tested using a latently infected Jurkat-derived cell clone, J-Lat clone A2. GFP expression in J-Lat clone A2 is induced upon reactivation with tumor necrosis factor-alpha (TNFα) or phytohaemagglutinin (PHA).
# To further study the mechanism of how JQ1 drives reactivation of HIV latency, HIV latently infected T-cell lines—J-Lat clones A1, A2, A7, and A72—were utilized. The effect of JQ1(+) on reactivation of HIV latency in these cell lines were confirmed. TNFα (20 ng/ml) or PHA (1.5 μg/ml) was added to cultures of J-Lat clones in the presence of 1 μM JQ1(+) or JQ1(−). After 16 hours, expression of GFP was measured by flow cytometry. […] In the presence of HIV Tat, BET antagonism enhances Tat-driven transcription of the HIV LTR in J-Lat clones A2 and A72 (FIG. 3F; underlined numbers indicate mean GFP fluorescence, non-underlined numbers indicate percent of GFP+ cells). […] Displacement of Brd4 from chromatin by JQ1(+) may cause conformational change in the chromatin, exposing NF-κb binding sites, leading to increased HIV transcription and reactivation of latency.
# [3] = tested on: HIV-1 NL43, SG3 or SG3deltaVif; experiment: Reactivation in latently infected primary resting CD4 T-cells (p24 ELISA)
# Procedure: A representative of three experiments is shown. […] AZT (100 μM) was added at day 1 after infection to prevent the spreading infection. The level of p24 in the media was measured by ELISA at day 3 (d3) and day 5 (d5) post-infection. The data shown are summarized for triplicate samples.
# For FIG. 5A, primary resting CD4 T-cells were purified and spinoculated with HIV-1 NL43 or mock control. The infected cells were then cultured in the presence of 1 μM of JQ1(+) or JQ1(−). At day 3 after infection, IL-7 (20 ng/ml) was added in some of the cultures. Cells were counted and cell supernatants were collected at day 5 after infection. For FIG. 5B, primary CD4 T-cells were spinoculated with SG3 or SG3deltaVif and cultured in the presence of 1 μM of JQ1(+) or JQ1(−). AZT (100 μM) was added at day 1 after infection to prevent the spreading infection. IL7 (20 ng/ml) was added in some culture at day 3 after infection and the level of p24 in the media was measured by ELISA at day 3 and day 5 post-infection. The data shown are summarized with triplicates.
compound,measurement,setting,value
"Cc1sc2c(c1C)C(c1ccc(Cl)cc1)=N[C@@H](CC(=O)OC(C)(C)C)c1nnc(C)n1-2 [JQ1(+), tert-butyl 2-((6S)-4-(4-chlorophenyl)-2,3,9-trimethyl-6H-thieno[3,2-f][1,2,4]triazolo[4,3-a][1,4]diazepin-6-yl)acetate]",provirus/cell,"HIV-1 NL43; Exp. 1, primary resting CD4 T-cells",0.559 ± 0.005 provirus/cell
same,provirus/cell,"HIV-1 NL43; Exp. 2, primary resting CD4 T-cells",0.444 ± 0.120 provirus/cell
same,Viral integration,"HIV-1 NL43; primary resting CD4 T-cells, 1 μM, 48 hours, Alu-PCR",does not significantly affect
same,Binding of Cdk9 to the HIV LTR,[1],significantly increased
same,Cell death,Primary CD4 T-cells,did not cause cell death above control values
same,Binding of RNA Pol II to the HIV LTR,[2],significantly increased
same,GFP expression (% positive cells and mean fluorescence intensity),"HIV LTR; J-Lat clone A2, with TNFα or PHA, 0.5 μM, 16 hours, versus JQ1(−) control",higher
same,Tat-driven transcription of the HIV LTR (GFP),"HIV LTR; J-Lat clones A2 and A72, HIV Tat protein 50 μg/ml, 16-18 hours",enhances
same,GFP expression with TNFα,"HIV LTR; J-Lat clones A72 and A2, TNFα 20 ng/ml plus compound 1 μM",dramatically enhanced
same,Percent of cells expressing GFP,"HIV LTR; J-Lat clones, compound alone, 1 μM, 16-18 hours",increased
same,Reactivation of the HIV LTR (p24 per million cells),"[3]; latently infected primary resting CD4 T-cells, NL43, 1 μM",drives the reactivation of the HIV LTR
same,Reactivation of the HIV LTR (p24 in media),"[3]; wild-type SG3 latently infected primary CD4 T-cells, 1 μM, AZT 100 μM",drives reactivation of the HIV LTR; also recorded: drives the reactivation of the HIV LTR
